For one assay, the system named is wild-type Efl1. Nature of the assay: ITC: binding of guanine nucleotides or Sdo1 to wild-type Efl1 (data of ref 6). Also on record: species or system Saccharomyces cerevisiae. To be noted: native protein.
Assay [1] addresses T1, Efl1 mutant T33A in complex with Sdo1 and the 60S subunits (Saccharomyces cerevisiae, UniProt P53893, T33A).
T1 construct: made in house; host or cells: Efl1: Saccharomyces cerevisiae; Sdo1: Escherichia coli C41; 60S subunits purified from S. cerevisiae strain JD1370
T1 sequence (P53893 1-1110 T33A): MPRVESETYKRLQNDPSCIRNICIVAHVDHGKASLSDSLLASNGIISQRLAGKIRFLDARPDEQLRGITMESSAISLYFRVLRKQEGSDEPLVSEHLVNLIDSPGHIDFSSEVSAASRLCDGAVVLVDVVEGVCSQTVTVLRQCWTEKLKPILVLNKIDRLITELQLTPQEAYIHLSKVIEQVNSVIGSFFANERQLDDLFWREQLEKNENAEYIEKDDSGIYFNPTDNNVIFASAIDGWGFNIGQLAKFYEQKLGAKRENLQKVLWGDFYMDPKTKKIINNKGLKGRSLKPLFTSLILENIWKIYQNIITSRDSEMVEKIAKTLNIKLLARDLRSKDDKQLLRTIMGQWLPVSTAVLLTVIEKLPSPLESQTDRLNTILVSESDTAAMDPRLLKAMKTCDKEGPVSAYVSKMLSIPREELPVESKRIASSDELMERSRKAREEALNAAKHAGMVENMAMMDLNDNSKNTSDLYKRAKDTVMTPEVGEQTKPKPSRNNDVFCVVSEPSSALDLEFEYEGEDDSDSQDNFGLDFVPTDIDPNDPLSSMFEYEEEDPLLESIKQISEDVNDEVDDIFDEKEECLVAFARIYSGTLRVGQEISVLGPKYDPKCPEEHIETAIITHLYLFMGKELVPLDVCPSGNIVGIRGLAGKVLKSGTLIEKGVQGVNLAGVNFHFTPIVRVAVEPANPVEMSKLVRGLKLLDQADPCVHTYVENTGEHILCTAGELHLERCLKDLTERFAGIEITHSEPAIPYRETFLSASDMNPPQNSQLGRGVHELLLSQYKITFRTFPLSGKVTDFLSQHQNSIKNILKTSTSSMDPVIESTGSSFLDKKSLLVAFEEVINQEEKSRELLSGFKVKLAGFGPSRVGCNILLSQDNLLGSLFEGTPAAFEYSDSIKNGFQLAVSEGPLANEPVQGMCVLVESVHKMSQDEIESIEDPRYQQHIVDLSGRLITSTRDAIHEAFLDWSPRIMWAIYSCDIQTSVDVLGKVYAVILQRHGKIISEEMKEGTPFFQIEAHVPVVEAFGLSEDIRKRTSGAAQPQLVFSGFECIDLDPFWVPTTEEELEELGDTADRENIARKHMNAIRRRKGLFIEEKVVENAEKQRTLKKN
T1 sequence (Q07953 1-250 partner): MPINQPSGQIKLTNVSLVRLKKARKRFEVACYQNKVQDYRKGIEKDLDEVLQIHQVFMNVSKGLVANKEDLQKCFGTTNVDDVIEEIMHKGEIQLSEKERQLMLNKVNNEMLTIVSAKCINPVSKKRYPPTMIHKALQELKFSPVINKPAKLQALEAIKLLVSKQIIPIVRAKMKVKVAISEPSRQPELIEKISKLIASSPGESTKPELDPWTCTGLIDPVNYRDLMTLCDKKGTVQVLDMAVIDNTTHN
Nature of the assay: Steady state fluorescence binding of mant-GTP to Efl1 T33A in complex with Sdo1 and 60S subunits. To be noted: 25 °C, one-binding-site model; read-out: dissociation constant (Kd). Here is the method:
We measured the binding of different Efl1 constructs present in complex with Sdo1 and 60S subunits to the fluorescence GTP analogue, mant-GTP, by following the increase in the fluorescence signal after excitation at 355 nm. Fluorescence intensities were plotted as a function of increasing nucleotide concentrations, and the dissociation constant (Kd) was calculated by fitting the data to a one-binding-site model (Supplementary Figure S1B).
Hydrolysis of GTP was measured using the Enzchek Phosphate Assay kit (Molecular Probes) as described by Webb. Standard reactions consisted of 100 µL containing 6 µM of Efl1 R1086Q and Efl1 L910K, 0.3 mM MESG, 1.0 U purine nucleoside phosphorylase (PNP) and the indicated amounts of GTP. […]
Reactions were initiated and the GTPase was added after 3 min. Time courses were followed by recording the change in absorbance at 360 nm in a Cary 60 UV -Vis spectrophotometer (Agilent Technologies). Background absorbance was recorded prior to the addition of the GTPase and subtracted from the sample signals. The slope of the measured time courses corresponded to the GTP hydrolysis rate. […] Data were analysed by nonlinear regression to the M ichaelis-Menten equation with the program Origin Version 5.0 (OriginLab, Co., Northampton, MA). […]
Steady state fluorescence measurements […]
Maximum emission at 440 nm was replotted as a function of nucleotide concentration and analysed

Here are results for two compounds from PMC9405973, “Altered Conformational Landscape upon Sensing Guanine Nucleotides in a Disease Mutant of Elongation Factor-like 1 (EFL1) GTPase” (Biomolecules, 2022).

Take `Nc1nc2c(ncn2[C@@H]2O[C@H](COP(=O)(O)OP(=O)(O)OP(=O)(O)O)[C@@H](O)[C@H]2O)c(=O)[nH]1` [GTP]: in the assay on wild-type Efl1, the “overall heat-capacity change to drive the protein into ternary complex GTPase•GTP•Sdo1” value is given as −950 cal mol^−1 K^−1.

What is called Kd is the concentration at which binding is half-saturated. `CNc1ccccc1C(=O)O[C@H]1[C@@H](O)[C@H](n2cnc3c(=O)[nH]c(N)nc32)O[C@@H]1COP(=O)(O)OP(=O)(O)OP(=O)(O)O` [mant-GTP]: in assay [1], the Kd was 24 µM.
